From patent US6573246B1, “Modified ether glyceroglycolipids” (The Liposome Company, Inc., priority 1995, dated 2003) come the findings set out here.

Like-named read-outs stand apart in the source and are kept apart here.

Experiment [1] concerns MCF-7 (breast adenocarcinoma) cells. The experiment can be described thus: growth inhibition of MCF-7 cells in culture. The note with it: MCF7, mean ± standard deviation, read-out: Gl50 (concentration of lipid required to inhibit the growth of fifty percent of the cells in culture). The experiment is classed as cell-based, human. The method, then: (§1) Human epithelial cancer cell lines were grown from frozen stocks originally obtained from the ATCC, in media commonly used for growing these cells in culture. For example, A549 cells (non-small cell lung adenocarcinoma) were cultured in Ham's F-12 medium, T84 cells (colon carcinoma) were cultured in a 1:1 mixture of F-12 and DMEM while MCF-7 (breast adenocarcinoma) and A427 (large cell lung carcinoma) cells were cultured in DMEM. The media were supplemented with 10% fetal bovine serum, penicillin (50 U/ml), streptomycin (50 micogram/ml) and fungizone (0.5 microgram/ml). OVCAR-3 cells (ovarian adenocarcinoma) were cultured in RPMI 1640 medium supplemented with 20% FBS and 10 microgram/ml insulin.
(§2) Cells were subcultured into 24-well plates and the cell number was monitored daily. When the cells were in log phase, the media was replaced with one containing the required drug concentration, and the cells were incubated for 72 h. The increase in cell numbers relative to control wells (without any drug) was determined after the incubation. Stock solutions of the drugs ([…]) were prepared in ethanol and stored at −20 deg. C. Etherlipid solutions (30 micromolar) in the appropriate media were prepared fresh on the day of the experiment and serially diluted to give the required concentrations. The final concentration of ethanol in all wells was 0.1% (v/v).
(§3) Gl50 values are given as the mean ± standard deviation; the Gl50 value from each experiment “n” was generated from three individual wells on two separate plates (six total wells); n=1 for compounds 3-6; n=2 for most cell lines treated with compound 2 ^an=3; ^bn=2; ^cn=6; ^dn=8.

In experiment [2] the test system is A549 cells (non-small cell lung adenocarcinoma). The experiment can be described thus: growth inhibition of A549 cells in culture. It counts as cell-based, human. The following applies: mean ± standard deviation, read-out: Gl50 (concentration of lipid required to inhibit the growth of fifty percent of the cells in culture). How it is done:
as §1, §2, §3

Experiment [3] has as its system OVCAR-3 cells (ovarian adenocarcinoma). The experiment can be described thus: growth inhibition of OVCAR-3 cells in culture. The note with it: for growth: increase in cell numbers relative to control wells (control = 100): OVCAR-3, 72 h. The experiment is classed as cell-based, human. How it is done: as §1, §2
The subject of experiment [4] is MCF-7/Adr (adriamycin-resistant) cells. The experiment in a line: growth inhibition of MCF7/adr cells in culture. The experiment is classed as cell-based, human. The following applies: mean ± standard deviation, read-out: Gl50 (concentration of lipid required to inhibit the growth of fifty percent of the cells in culture). How it is done: (§4) The Gl50 values for edelfosine (1), 2′-deoxy-β-D-arabinopyranosyl (2), 2′-deoxy-α-D-arabinopyranosyl (3), 2-O-methyl-β-D-glucopyranosyl (4), 2′-O-methyl-β-D-mannopyranosyl (5) and α-D-mannopyransoyl (6) on A-549, MCF-7, Lewis Lung, MCF-7/Adr (adriamycin-resistant), P388, P-388/Adr, L1210 and L1210/vmdr cells were determined and are set forth below (see Table 4) as the concentration (micromolar) of lipid required to inhibit the growth of fifty percent of the cells in culture.
as §3

The next experiment concerns HT29 cells. The experiment in a line: growth inhibition of HT29 cells in culture. The note with it: read-out: Gl50 (concentration of lipid required to inhibit the growth of fifty percent of the cells in culture). The experiment is classed as cell-based.
A further experiment deals with Lewis Lung cells. The experiment in a line: growth inhibition of Lewis Lung cells in culture. The note with it: mean ± standard deviation, read-out: Gl50 (concentration of lipid required to inhibit the growth of fifty percent of the cells in culture). The experiment is classed as cell-based, murine. How it is done:
as §4, §3

A further experiment relates to P388 cells. The experiment can be described thus: growth inhibition of P388 cells in culture. It counts as cell-based, murine. The following applies: mean ± standard deviation, read-out: Gl50 (concentration of lipid required to inhibit the growth of fifty percent of the cells in culture). The method, then:
as §4, §3

The subject of another experiment is P-388/Adr cells. The experiment can be described thus: growth inhibition of P388/adr cells in culture. The experiment is classed as cell-based, murine. The note with it: mean ± standard deviation, read-out: Gl50 (concentration of lipid required to inhibit the growth of fifty percent of the cells in culture). The method, then: as §4, §3
The test system of another experiment is L1210 cells. The experiment in a line: growth inhibition of L1210 cells in culture. The note with it: mean ± standard deviation, read-out: Gl50 (concentration of lipid required to inhibit the growth of fifty percent of the cells in culture). It counts as cell-based. The method, then: as §4, §3
The next experiment concerns L1210/vmdr cells. The experiment can be described thus: growth inhibition of L1210/vmdr cells in culture. The following applies: mean ± standard deviation, read-out: Gl50 (concentration of lipid required to inhibit the growth of fifty percent of the cells in culture). The experiment is classed as cell-based. How it is done:
as §4, §3

Turning to `CCCCCCCCCCCCCCCCCCOCC(COP(=O)([O-])OCC[N+](C)(C)C)OC` (stereo not drawn) [compound 1, edelfosine, reference compound], the IC50 in experiment [1] (Homo sapiens) amounted to 9.66 µM; in experiment [2] (Homo sapiens), 5.05 µM; in [3] (Homo sapiens, OVCAR-3 ovarian cancer cell line, read-out: Gl50 (the source's name)), 24 µM; in experiment [4] (Homo sapiens, NCI/ADR-RES) it was 30.4 µM; in the experiment with HT29 cells (Homo sapiens, HT-29, mean ± standard deviation), 2.2 µM; in the experiment on Lewis Lung cells (Mus musculus, Lewis lung carcinoma) it was 30.2 µM. Moreover, the IC50 with P388 cells (Mus musculus) stood at 4.33 µM; in the experiment on P-388/Adr cells (Mus musculus) it was 6.39 µM; in the experiment with L1210 cells (Mus musculus) it was 3.32 µM; in the experiment on L1210/vmdr cells (Mus musculus), 11 µM. The “growth: increase in cell numbers relative to control wells (control = 100)” value in experiment [3] (lipid concentration 5 μM) was determined as 105.8 ± 8.5; in [3] (lipid concentration 10 μM) it was 77.5 ± 1.0; in [3] (lipid concentration 15 μM), 70.7 ± 9.9; in experiment [3] (lipid concentration 20 μM), 68.7 ± 13.6; in experiment [3] (lipid concentration 30 μM), 20.4 ± 8.1.

In the case of `CCCCCCCCCCCCCCCCOC[C@H](CO[C@H]1O[C@H](CO)[C@@H](O)[C@H](O)[C@@H]1O)OC` [compound 6, 1-O-Hexadecyl-2-O-methyl-3-O-(α-D-mannopyransoyl)-sn-glycerol], the IC50 in experiment [1] was determined as 21.7 ± 0.57 µM; in experiment [2], 18.1 ± 0.14 µM; in [4] it was 23.3 ± 0.71 µM; in the experiment with HT29 cells (mean ± standard deviation), 23.2 ± 0.85 µM; with L1210 cells it was 16.2 ± 0.99 µM; in the experiment with L1210/vmdr cells, 18.9 µM.

With `CCCCCCCCCCCCCCCCOC[C@H](CO[C@@H]1O[C@H](CO)[C@@H](O)[C@H](O)[C@H]1OC)OC` [compound 4, 1-O-Hexadecyl-2-O-methyl-3-O-(2′-methyl-β-D-glucopyransoyl)-sn-glycerol], the IC50 in experiment [1] was found to be 23.1 ± 0.64 µM; in [2] it was 18.3 ± 0.14 µM; in experiment [4], 21.8 ± 0.63 µM; with Lewis Lung cells, 26 ± 0.71 µM; with P388 cells, 18.1 ± 1.13 µM; in the experiment on P-388/Adr cells it was 29.3 ± 5.66 µM.

As for `CCCCCCCCCCCCCCCCOC[C@H](CO[C@H]1C[C@H](O)[C@H](O)CO1)OC` [compound 2, 1-O-Hexadecyl-2-O-methyl-3-O-(2′-deoxy-β-D-arabinopyransoyl)-sn-glycerol], the IC50 came out at 6.93 ± 0.12 µM in experiment [1]; 9.9 ± 0.99 µM in experiment [2]; 12.8 ± 0.85 µM in [4]; 7.59 ± 0.23 µM with HT29 cells (mean ± standard deviation); 11.1 ± 0.49 µM with Lewis Lung cells; 12.7 ± 0.78 µM in the experiment on P388 cells. The IC50 is 10.2 ± 0.34 µM in the experiment on P-388/Adr cells, 7.02 ± 0.49 µM with L1210 cells and 7.09 ± 0.33 µM in the experiment with L1210/vmdr cells.

Take `CCCCCCCCCCCCCCCCOC[C@H](CO[C@@H]1C[C@H](O)[C@H](O)CO1)OC` [compound 3, 1-O-Hexadecyl-2-O-methyl-3-O-(2′-deoxy-α-D-arabinopyransoyl)-sn-glycerol]: the IC50 in experiment [1] stood at 24.4 ± 0.64 µM; in experiment [2] it was 19.65 ± 0.07 µM; in experiment [4], 24.4 ± 0.42 µM; with HT29 cells (mean ± standard deviation), 29.6 ± 0.28 µM; in the experiment on L1210 cells it was 18.8 ± 0.49 µM; with L1210/vmdr cells, 26.9 ± 1.06 µM.
